Test results: patent US11167007B2, “FOXM1 modulators and uses thereof” (City of Hope, priority 2016, dated 2021)

Tests used:
AR = molecular target: T1, AR (Homo sapiens, UniProt P10275); assay: Androgen-responsive luciferase reporter assay in ReNcell CX neuronal cells; type: cell-based; design: endogenous in cells; host or cells: ReNcell CX; conditions: FIG. 2B
T1 sequence (P10275 1-920): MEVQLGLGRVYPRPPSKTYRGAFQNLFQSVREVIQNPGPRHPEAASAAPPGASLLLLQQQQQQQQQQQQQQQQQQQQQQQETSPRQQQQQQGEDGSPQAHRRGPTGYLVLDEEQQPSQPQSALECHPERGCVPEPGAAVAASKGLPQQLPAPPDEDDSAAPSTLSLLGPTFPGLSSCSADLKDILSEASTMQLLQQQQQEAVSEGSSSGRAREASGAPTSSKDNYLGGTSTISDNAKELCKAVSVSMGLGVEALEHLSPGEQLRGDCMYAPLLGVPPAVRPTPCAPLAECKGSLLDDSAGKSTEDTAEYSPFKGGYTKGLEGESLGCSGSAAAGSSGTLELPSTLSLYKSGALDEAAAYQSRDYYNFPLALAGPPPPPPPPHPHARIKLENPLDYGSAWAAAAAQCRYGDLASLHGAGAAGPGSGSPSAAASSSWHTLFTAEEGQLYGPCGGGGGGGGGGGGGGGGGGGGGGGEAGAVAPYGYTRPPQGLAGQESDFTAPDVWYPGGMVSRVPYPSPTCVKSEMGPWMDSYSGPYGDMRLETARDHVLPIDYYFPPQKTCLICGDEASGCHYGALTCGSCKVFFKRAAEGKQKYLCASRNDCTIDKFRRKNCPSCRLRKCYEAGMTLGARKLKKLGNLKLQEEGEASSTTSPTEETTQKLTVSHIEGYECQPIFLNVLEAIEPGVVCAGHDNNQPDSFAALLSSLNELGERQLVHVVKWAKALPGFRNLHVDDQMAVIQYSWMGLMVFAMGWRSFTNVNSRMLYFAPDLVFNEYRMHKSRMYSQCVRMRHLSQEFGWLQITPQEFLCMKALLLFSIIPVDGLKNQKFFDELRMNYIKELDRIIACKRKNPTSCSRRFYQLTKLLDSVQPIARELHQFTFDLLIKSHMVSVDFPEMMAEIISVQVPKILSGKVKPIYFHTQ
Excerpt: (§1) Luciferase Reporter Assay. Cells were transfected using Lipofectamine Plus (Invitrogen) with a normalization plasmid (pRL-SV40, Promega) and an androgen responsive plasmid (MMTV-luciferase or PSA-luciferase) as described in Jones et al, ACS Chem Biol, 3(7):412-8 (2008), and, where indicated, with an shRNA plasmid targeting FOXM1 (adapted for mouse FOXM1 sequence targeting) a scrambled control shRNA plasmid, or ARQ24 or ARQ65 plasmids. Christensen et al, PLoS One, 8(1):e54556 (2013). The following day, cells and drugs were distributed to 96-well plates. 24 hours later, luciferase activity was assessed by a dual luciferase assay kit (Promega) on the Tecan plate reader. Samples were run in quadruplicates and a Student's t test was performed to determine significance, where p<0.05 was considered significant.
The ability of thiostrepton to inhibit AR activity in additional neuronal cells, including ReNcell CX cells PC12 cells, and in rat L6 skeletal muscle cells was examined (FIG. 2B). Donato et al, BMC Neurosci, 8:36 (2007); Yaffe, Proc Natl Acad Sci USA, 61(2):477-83 (1968).

[1] = molecular target: T2, AR with a 65 glutamine tract (disease associated) (Homo sapiens, UniProt P10275, INS80QQQQQQQQQQQQQQQQQQQQQQQQQQQQQQQQQQQQQQQQQQ); assay: Luciferase reporter assay in HEK293 cells transfected with ARQ65; type: cell-based; conditions: HEK293, AR 65 glutamines, FIG. 2C
T2 construct: expressed in transfected cells; host or cells: HEK293
T2 sequence (P10275 with tags, fused parts or gaps with the stated changes): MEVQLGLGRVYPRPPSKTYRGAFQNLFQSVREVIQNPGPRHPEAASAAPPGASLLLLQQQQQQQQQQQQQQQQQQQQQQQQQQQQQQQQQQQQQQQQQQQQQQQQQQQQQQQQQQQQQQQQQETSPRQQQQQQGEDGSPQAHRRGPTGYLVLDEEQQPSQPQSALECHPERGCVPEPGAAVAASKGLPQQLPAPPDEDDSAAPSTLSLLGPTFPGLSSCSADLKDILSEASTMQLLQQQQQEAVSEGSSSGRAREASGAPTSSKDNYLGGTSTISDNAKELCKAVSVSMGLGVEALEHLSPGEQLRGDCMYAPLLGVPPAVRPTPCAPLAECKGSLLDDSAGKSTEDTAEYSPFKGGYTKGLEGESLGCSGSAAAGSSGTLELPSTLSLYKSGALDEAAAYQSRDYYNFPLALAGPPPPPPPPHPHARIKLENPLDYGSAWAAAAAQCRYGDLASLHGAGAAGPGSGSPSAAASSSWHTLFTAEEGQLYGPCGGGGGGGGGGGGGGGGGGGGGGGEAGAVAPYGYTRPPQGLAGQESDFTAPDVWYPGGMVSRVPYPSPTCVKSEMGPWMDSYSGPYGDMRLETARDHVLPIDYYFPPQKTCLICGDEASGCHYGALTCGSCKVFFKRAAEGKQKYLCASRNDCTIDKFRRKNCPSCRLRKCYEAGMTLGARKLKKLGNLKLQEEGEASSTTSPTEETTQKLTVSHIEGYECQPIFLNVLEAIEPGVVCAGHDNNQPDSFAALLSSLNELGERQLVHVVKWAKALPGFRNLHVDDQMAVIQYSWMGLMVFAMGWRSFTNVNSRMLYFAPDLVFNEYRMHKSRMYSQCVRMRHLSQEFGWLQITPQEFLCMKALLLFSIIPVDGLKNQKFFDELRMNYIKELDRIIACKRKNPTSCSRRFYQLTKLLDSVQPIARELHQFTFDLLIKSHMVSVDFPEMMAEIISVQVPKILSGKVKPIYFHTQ
Excerpt: as §1
SBMA is caused by the activity of polyglutamine-expanded AR, and experiments were conducted to investigate the effects of thiostrepton against polyglutamine-expanded AR. AR-negative HEK293 cells were transfected with plasmids encoding AR with a 24 glutamine tract (normal) or with a 65 glutamine tract (disease associated). The polyglutamine-expanded AR was less transcriptionally active than the normal AR, as has been previously documented for such constructs. Kazemi-Esfarjani et al, Hum Mol Genet, 4:523-527 (1995).

SMILES: C=C(NC(=O)C(=C)NC(=O)c1csc(C2=N[C@@H]3c4csc(n4)[C@H]4NC(=O)c5csc(n5)[C@H]([C@](C)(O)[C@@H](C)O)NC(=O)[C@H]5CSC(=N5)/C(=C/C)NC(=O)[C@H]([C@@H](C)O)NC(=O)c5csc(n5)[C@]3(CC2)NC(=O)[C@H](C)NC(=O)C(=C)NC(=O)[C@H](C)NC(=O)[C@H]([C@@H](C)CC)N[C@@H]2C=Cc3c([C@H](C)O)cc(nc3[C@H]2O)C(=O)O[C@@H]4C)n1)C(N)=O [thiostrepton]
- inhibition of AR activity (luciferase) (AR): inhibited AR activity
- inhibition of polyglutamine-expanded AR activity (luciferase) [1]: inhibited
